Assay results taken from patent EP2718307B1, “BETA-HAIRPIN PEPTIDOMIMETICS AS CXC4 ANTAGONISTS” (Polyphor AG, priority 2011, dated 2012).
Where two headings read alike, the source gives them in different places. Bridge positions count the residues as written; N and C are the ends. Square brackets hold non-standard residues; d marks the D form. Peptide text beside a SMILES is read from it. Lys(iPr) = CC(C)NCCCC[C@H](N)C(=O)O; Orn(iPr) = CC(C)NCCC[C@H](N)C(=O)O

Legend:
[1] = test system: human red blood cells (hRBC); assay: Hemolysis; assay type: cell-based
Protocol: The peptides were tested for their hemolytic activity against human red blood cells (hRBC). Fresh hRBC were washed four times with phosphate buffered saline (PBS) and centrifuged for 10 min at 3000 x g. Compounds (100 µM) were incubated with 20% hRBC (v/v) for 1 h at 37°C and shaking at 300 rpm. The final erythrocyte concentration was approximately 0.9 x 10^9 cells/mL. A value of 0% and 100% cell lysis, respectively, was determined by incubation of hRBC in the presence of PBS containing 0.001% acetic acid and 2.5% Triton X-100 in H2O respectively. The samples were centrifuged, the supernatants were 8-fold diluted in PBS buffer and the optical densities (OD) were measured at 540 nm. The 100% lyses value (OD540H2O) gave an OD540 of approximately 0.5-1.0. Percent hemolysis was calculated as follows: (OD540peptide/OD540H2O) x 100%. [formula]

[2] = Plasma stability, human plasma; assay type: in vitro ADME
Protocol: (§1) The stability of the peptides in human and mouse plasma was determined by applying the following method: 346.5 µL/deep well of freshly thawed human plasma (Basler Blutspende-dienst) and mouse plasma (Harlan Sera-Lab, UK), respectively, were spiked with 3.5 µL/well of compound dissolved in DMSO/H2O (90/10 [v/v], 1 mM, triplicate) and incubated at 37° C. At t = 0, 15, 30, 60, 120, 240 and 1440 min aliquots of 50 µL were transferred to filtration plate wells containing 150 µL/well of 2% formic acid in acetonitrile. Following shaking for 2 min the occurred suspensions were filtrated by vacuum. 100 µL of each filtrate were transferred to a propylene microtiter plate and dried under N2. The residual solids were reconstituted by adding 100 µL/well of water/acetonitrile, 95/5 (v/v) + 0.2% formic acid and analyzed by LC/MS as follows: Column: Waters, XBridge C18, mobile phases: (A) water + 0.1% formic acid and (B) acetonitrile/water, 95/5 (v/v) + 0.1% formic acid, gradient: 5%-100% (B) in 1.8 minutes, electrospray ionization, MRM detection (triple quadrupole). The peak areas were determined and triplicate values are averaged. The stability is expressed in percent of the initial value at t = 0. (tx/t0 x 100). By using the TREND function of EXCEL (Microsoft Office 2003) T1/2 were determined.

[3] = Plasma stability, mouse plasma; assay type: in vitro ADME
Protocol: as §1

[4] = Pharmacokinetic study (PK) after intravenous administration; assay type: in vivo, male CD-1 mice; details: 1 mg/kg; for AUC0-∞ / CL / Cmax / Half-life / Vdis: mouse, in vivo
Protocol: For the compounds of Ex. 1, Ex.2, Ex. 3, Ex. 4, Ex. 5 and Ex. 6 pharmacokinetic studies after intravenous (i.v.) administration were performed.
30 grams (± 20%) male CD-1 mice obtained from Charles River Laboratories Deutschland GmbH were used. The vehicle, phosphate buffered saline, was added to give a final concentration of 0.5 mg/mL of the compound. The volume was 2 mL/kg and the compound was injected to give a final intravenous dose of 1 mg/kg. Approximately 300-400 µL of blood was removed under light isoflurane anesthesia by cardiac puncture at predetermined time intervals (5, 15, 30 min and 1, 2, 3, 4, hours) and added to heparinized tubes. Plasma was removed from pelleted cells upon centrifugation and frozen at -80 °C prior to HPLC-MS analysis.
Aliquots of 50 µL each of mouse plasma of untreated aminals ("blank" mouse plasma) were spiked with known amounts of the compounds Ex. 1, Ex.2, Ex. 3, Ex. 4, Ex. 5 and Ex. 6 in order to obtain 10 plasma calibration samples for each compound in the range 1 - 4000 ng/mL. Aliquots of 50 µL each of mouse plasma from treated animals were used as plasma study samples.
All plasma samples were spiked with an appropriate internal standard and extracted with acetonitrile containing 2% formic acid. Supernatants were evaporated to dryness under nitrogen and the remaining solids reconstituted in water/acetonitrile 95/5 (v/v) + 0.2% formic acid.
Extracts were then analyzed by reverse-phase chromatography (Acquity BEH C18, 100 x 2.1 mm, 1.7 µm column, Waters for Ex. 1 and Acquity HSS C18 SB, 100 x 2.1 mm, 1.8 µm column, Waters for Ex. 2, Ex. 3, Ex. 4, Ex. 5 and Ex. 6), using the following conditions: Ex. 1, mobile phases: (A) water/acetonitrile 95/5 (v/v) + 0.1% formic acid, (B) acetonitrile/water 95/5 (v/v) + 0.1% formic acid, gradient: 1% (B) 0-0.1 min, 15% (B) 0.1-2.5 min for Ex. 1 and 1% (B) 0-0.1 min, 40% (B) 0.1-2.5 min for Ex. 2, Ex. 3, Ex. 4, Ex. 5 and Ex. 6. The detection and quantification was performed by mass spectrometry, with electrospray interface in positive mode and selective fragmentation of analytes (4000 Q Trap mass spectrometer, AB Sciex).
PK parameters were calculated by WinNonLin™ software version 5.3 (Pharsight- A Certara™ Company, Moutain View, CA 94041 USA) using a one-compartmental model analysis. PK parameters were determined by least-square fitting of the model to the experimental data.

Structure (SMILES)	Hemolysis at 100 µM ([1]; 100 µM, 20% hRBC, 1 h at 37°C) [%]	Plasma stability human pl. T1/2 ([2]; human plasma, 37° C, last time point 1440 min) [h]	Plasma stability mouse pl. T1/2 ([3]; mouse plasma, 37° C, last time point 1440 min) [h]	level at 4 h ([4]; male, CD-1, in vivo, iv, mouse plasma, i.v. route, Time 4 h, read-out: Calc. Conc.) [ng/mL]	Hemolysis at 100 µM ([1]; red cells of human, 1 h, 100) [%]	Plasma stability human pl. T1/2 [2] [h]	Plasma stability human pl. cpd left at 1440 min [2] [%]	Plasma stability mouse pl. T1/2 [3] [h]	Plasma stability mouse pl. cpd left at 1440 min [3] [%]	AUC0-∞ ([4]; iv) [ng·h/mL]	CL ([4]; iv) [mL/min/kg]	Cmax ([4]; iv) [ng/mL]	Half-life ([4]; iv) [h]	Vdis ([4]; iv) [L/kg]	Calc. Conc. ([4]; mouse plasma, i.v. route, Time 4 h) [ng/mL]
COc1ccc(C[C@@H]2NC(=O)[C@H](Cc3c[nH]cn3)NC(=O)[C@H](Cc3ccc(O)cc3)NC(=O)[C@@H]3CCCN3C(=O)[C@H]3CCCN3C(=O)[C@H](CCCCNC(C)C)NC(=O)[C@H](CCC(N)=O)NC(=O)[C@H](Cc3ccc(O)cc3)NC(=O)[C@@H]3CSSC[C@H](NC2=O)C(=O)N[C@@H](CO)C(=O)N[C@@H](C)C(=O)N[C@H](Cc2ccc(OC)cc2)C(=O)N[C@@H](CCCNC(C)C)C(=O)N[C@@H](CCCNC(=N)N)C(=O)N[C@@H](Cc2ccc(O)cc2)C(=O)N3)cc1 [Ex. 6, cyclo(-Tyr^1-His^2-Tyr(Me)^3-Cys^4-Ser^5-Ala^6-^DTyr(Me)^7-Orn(iPr)^8-Arg^9-Tyr^10-Cys^11-Tyr^12-Gln^13-Lys(iPr)^14-^DPro^15-Pro^16-), disulfide bond between Cys^4 and Cys^11] (cyclo(YHY(Me)CSA[dY](Me)[Orn(iPr)]RYCYQ[Lys(iPr)][dP]P); disulfide 4-11)	2	24	24	7	–	–	–	–	–	–	–	–	–	–	–
COc1ccc(C[C@@H]2NC(=O)[C@H](Cc3c[nH]cn3)NC(=O)[C@H](Cc3ccc(O)cc3)NC(=O)[C@@H]3CCCN3C(=O)[C@H]3CCCN3C(=O)[C@H](CCCCNC(C)C)NC(=O)[C@H](CCC(N)=O)NC(=O)[C@H](Cc3ccc(O)cc3)NC(=O)[C@@H]3CSSC[C@H](NC2=O)C(=O)N[C@@H](CO)C(=O)N[C@@H](C)C(=O)N2CCC[C@@H]2C(=O)N[C@@H](CCCNC(C)C)C(=O)N[C@@H](CCCNC(=N)N)C(=O)N[C@@H](Cc2ccc(O)cc2)C(=O)N3)cc1 [Ex. 2, cyclo(-Tyr^1-His^2-Tyr(Me)^3-Cys^4-Ser^5-Ala^6-^DPro^7-Orn(iPr)^8-Arg^9-Tyr^10-Cys^11-Tyr^12-Gln^13-Lys(iPr)^14-^DPro^15-Pro^16-), disulfide bond between Cys^4 and Cys^11] (cyclo(YHY(Me)CSA[dP][Orn(iPr)]RYCYQ[Lys(iPr)][dP]P); disulfide 4-11)	–	–	–	–	1.0	24	100	24	100	1518	11	1575	0.7	0.635	–
CC(C)NCCCC[C@@H]1NC(=O)[C@H](CCC(N)=O)NC(=O)[C@H](Cc2ccc(O)cc2)NC(=O)[C@@H]2CSSC[C@H](NC(=O)[C@H](Cc3ccc(O)cc3)NC(=O)[C@H](Cc3c[nH]cn3)NC(=O)[C@H](Cc3ccc(O)cc3)NC(=O)[C@@H]3CCCN3C(=O)[C@H]3CCCN3C1=O)C(=O)N[C@@H](CO)C(=O)N[C@@H](C)C(=O)N1CCC[C@@H]1C(=O)N[C@@H](CCCNC(C)C)C(=O)N[C@@H](CCCNC(=N)N)C(=O)N[C@@H](Cc1ccc(O)cc1)C(=O)N2 [Ex. 1, cyclo(-Tyr^1-His^2-Tyr^3-Cys^4-Ser^5-Ala^6-^DPro^7-Orn(iPr)^8-Arg^9-Tyr^10-Cys^11-Tyr^12-Gln^13-Lys(iPr)^14-^DPro^15-Pro^16-), disulfide bond between Cys^4 and Cys^11] (cyclo(YHYCSA[dP][Orn(iPr)]RYCYQ[Lys(iPr)][dP]P); disulfide 4-11)	–	–	–	–	1.0	24	77	24	100	1151	14.5	1829	0.4	0.547	7
COc1ccc(C[C@H]2NC(=O)[C@H](C)NC(=O)[C@H](CO)NC(=O)[C@@H]3CSSC[C@H](NC(=O)[C@H](Cc4ccc(O)cc4)NC(=O)[C@H](CCCNC(=N)N)NC(=O)[C@H](CCCNC(C)C)NC2=O)C(=O)N[C@@H](Cc2ccc(O)cc2)C(=O)N[C@@H](CCC(N)=O)C(=O)N[C@@H](CCCCNC(C)C)C(=O)N2CCC[C@@H]2C(=O)N2CCC[C@H]2C(=O)N[C@@H](Cc2ccc(O)cc2)C(=O)N[C@@H](Cc2c[nH]cn2)C(=O)N[C@@H](C)C(=O)N3)cc1 [Ex. 4, cyclo(-Tyr^1-His^2-Ala^3-Cys^4-Ser^5-Ala^6-^DTyr(Me)^7-Orn(iPr)^8-Arg^9-Tyr^10-Cys^11-Tyr^12-Gln^13-Lys(iPr)^14-^DPro^15-Pro^16-), disulfide bond between Cys^4 and Cys^11] (cyclo(YHACSA[dY](Me)[Orn(iPr)]RYCYQ[Lys(iPr)][dP]P); disulfide 4-11)	–	–	–	–	0	24	94	24	60	1345	12.4	1615	0.6	0.607	–
